According to patent US20120239131A1, “METHODS AND APPARATUS FOR TREATMENT OF ANEURYSMAL TISSUE” (Medtronic Vascular, Inc., priority 2011, published 2012):
Entries after “also recorded” stand apart in the source; their conditions may differ. Each block holds one compound with its values, some of them ahead of it.

Experiments:
[1] = cited from earlier work
[2] = in vivo; cited from earlier work
[3] = Plasma drug content by HPLC; format: in vivo, ApoE−/− mice; settings: mouse plasma on day of sacrifice
Experimental: (§1) In order to determine the effect of the various treatments on the progressive enlargement of the experimental AAAs the mice were followed with high frequency trans-abdominal ultrasound. Maximum aortic diameter was measured and recorded prior to pump implantation and then at 3, 7, 14, 21, and 28 days. All mice were sacrificed 28 days after pump implantation. Aortae were harvested and subjected to either histological analysis (Elastic Masson trichome, MAC2, CD31 and TUNEL staining) and analysis of mural gene expression. Plasma drug concentrations of experimental compounds were quantified on the day of sacrifice using high performance liquid chromatography (HPLC).

AAA = test: Aortic diameter by ultrasonography, ApoE−/−+Ang II AAA model; format: in vivo, ApoE−/− mice; settings: pretreatment 1 week before Ang II infusion, followed to 28 days; versus control and doxycycline
Description: The ApoE^−/−+Ang II AAA model is well established and supported by current scientific literature. Mice genetically predisposed to hypercholesterolemia develop aneurysms when treated with angiotensin II. Aneurysms generally develop within the first week after pump implantation and share many important pathologic characteristics with human AAA disease. ApoE−/− mice used in this study were divided into different pretreatment groups: 1) Fluvastatin-MF; 2) Doxycycline-MD; 3) Irbesartan-MI; 4) Telmisartan-MT; 5) Control (water) and fed medicated chow or medicated drinking water 1 week prior to pump implantation. AngII (1000 ng·kg^−1 of body weight·min^−1) was infused subcutaneously via Alzet mini-osmotic pumps for 28 days. All mice were maintained on the medicated chow (MI & MT) or medicated drinking water (MF & MD) treatments which were delivered daily for a total of 28 days following pump implantation. In order to determine the effect of the various treatments on the progressive enlargement of the experimental AAAs the mice were followed with high frequency trans-abdominal ultrasound. Maximum aortic diameter was measured and recorded prior to pump implantation and then at 3, 7, 14, 21, and 28 days. All mice were sacrificed 28 days after pump implantation. Aortae were harvested and subjected to either histological analysis (Elastic Masson trichome, MAC2, CD31 and TUNEL staining) and analysis of mural gene expression. Plasma drug concentrations of experimental compounds were quantified on the day of sacrifice using high performance liquid chromatography (HPLC).

aneurysm = test: Aneurysm incidence over time, ApoE−/−+Ang II AAA model; format: in vivo, ApoE−/− mice; settings: aneurysm = dissection or more than 50% increase in diameter; versus doxycycline and saline control
Experimental: (§2) ApoE−/− mice used in this study were divided into different pretreatment groups: 1) Fluvastatin-MF; 2) Doxycycline-MD; 3) Irbesartan-MI; 4) Telmisartan-MT; 5) Control (water) and fed medicated chow or medicated drinking water 1 week prior to pump implantation. AngII (1000 ng·kg^−1 of body weight·min^−1) was infused subcutaneously via Alzet mini-osmotic pumps for 28 days. All mice were maintained on the medicated chow (MI & MT) or medicated drinking water (MF & MD) treatments which were delivered daily for a total of 28 days following pump implantation.
as §1
Aneurysm was defined as either the presence of dissection or more than 50% increase in diameter.

Runx3 = test: Aortic mural gene expression, RT-PCR (TLDA); format: in vivo, ApoE−/− mice; settings: fold change over ApoE−/− control; aorta, 28 days Ang II infusion
Experimental: as §2, §1
(§3) Total RNA was extracted from homogenized aortas using the Qiazol lysis reagent and RNeasy Lipid Tissue Mini kit. DNAse treatment was included in the procedure. RNA concentration was determined utilizing the Quant iT RNA assay kit. Complimentary deoxyribonucleic acid (cDNA) was synthesized from 1 μg RNA using High reverse cDNA transcription kit. Briefly the reaction tubes containing RNA, reverse transcriptase, buffer, RNAse inhibitor, and nuclease free water were incubated at 25° C. for 10 minutes to allow annealing. Reverse transcription was performed at 37° C. for 120 min, followed by a 5 sec incubation at 85° C. to inactivate the reverse transcriptase enzyme. The cDNA samples were cooled at 4° C. and stored at −80° C. until further use.
(§4) Real time PCR was performed using a 384-well Taqman low density array (TLDA) card. Each sample specific PCR mix contained 50 ng of total RNA converted to cDNA. The PCR reaction for Taqman assays contained 50 μl Master Mix (Taqman Universal PCR Master Mix,) and 50 ul of cDNA and RNAase free water. Assays were performed to include appropriate controls (no template control). The RT-PCR protocol included an initial step of 50° C. (2 minutes) […], denaturation by a hot start at 95° C. for 10 min, followed by 40 cycles of a 2 step program (denaturation at 95° C. for 15 secs for primer annealing/extension at 60° C. for 1 min). Fluorescence data was collected at 60° C. Fluorescence was quantified with ABI PRISM 7900HT Sequence Detection System. To verify amplification of a specific target cDNA, data generated was analyzed using SDS 2.2.3 software (Sequence Detection System Software, Applied Biosystems). For all amplification plots, the baseline data were set with the automatic CT function available with SDS 2.2.3 calculating the optimal baseline range and threshold value by using the AutoCT algorithm. According to the manufacturer's instruction, a CT value of ≧39 corresponds to nonspecific amplification marking the limits of detection. For endogenous control GAPDH was normalized to B2M. For relative quantification (RQ), pooled ApoE−/− control was used as the calibrator (with expression equal to 1).

MMP-12 = test: Aortic mural gene expression, RT-PCR (TLDA); format: in vivo, ApoE−/− mice; settings: fold change over ApoE−/− control; aorta, 28 days Ang II infusion
Experimental: as §2, §1, §3, §4

IL-7 = test: Aortic mural gene expression, RT-PCR (TLDA); format: in vivo, ApoE−/− mice; settings: fold change over ApoE−/− control; aorta, 28 days Ang II infusion
Experimental: as §2, §1, §3, §4

Tgfβ1 = test: Aortic mural gene expression, RT-PCR (TLDA); format: in vivo, ApoE−/− mice; settings: fold change over ApoE−/− control; aorta, 28 days Ang II infusion
Experimental: as §2, §1, §3, §4

TNF-α = test: Aortic mural gene expression, RT-PCR (TLDA); format: in vivo, ApoE−/− mice; settings: fold change over ApoE−/− control; aorta, 28 days Ang II infusion
Experimental: as §2, §1, §3, §4

Cybb = test: Aortic mural gene expression, RT-PCR (TLDA); format: in vivo, ApoE−/− mice; settings: fold change over ApoE−/− control; aorta, 28 days Ang II infusion
Experimental: as §2, §1, §3, §4

CXCR4 = test: Aortic mural gene expression, RT-PCR (TLDA); format: in vivo, ApoE−/− mice; settings: fold change over ApoE−/− control; aorta, 28 days Ang II infusion
Experimental: as §2, §1, §3, §4

Osteopontin = test: Aortic mural gene expression, RT-PCR (TLDA); format: in vivo, ApoE−/− mice; settings: fold change over ApoE−/− control; aorta, 28 days Ang II infusion
Experimental: as §2, §1, §3, §4

Cathepsin S = test: Aortic mural gene expression, RT-PCR (TLDA); format: in vivo, ApoE−/− mice; settings: fold change over ApoE−/− control; aorta, 28 days Ang II infusion
Experimental: as §2, §1, §3, §4

ITGAL = test: Aortic mural gene expression, RT-PCR (TLDA); format: in vivo, ApoE−/− mice; settings: fold change over ApoE−/− control; aorta, 28 days Ang II infusion
Experimental: as §2, §1, §3, §4

CCL2 = test: Aortic mural gene expression, RT-PCR (TLDA); format: in vivo, ApoE−/− mice; settings: fold change over ApoE−/− control; aorta, 28 days Ang II infusion
Experimental: as §2, §1, §3, §4

LOX = test: Aortic mural gene expression, RT-PCR (TLDA); format: in vivo, ApoE−/− mice; settings: fold change over ApoE−/− control; aorta, 28 days Ang II infusion
Experimental: as §2, §1, §3, §4

TIMP2 = test: Aortic mural gene expression, RT-PCR (TLDA); format: in vivo, ApoE−/− mice; settings: fold change over ApoE−/− control; aorta, 28 days Ang II infusion
Experimental: as §2, §1, §3, §4

CCR5 = test: Aortic mural gene expression, RT-PCR (TLDA); format: in vivo, ApoE−/− mice; settings: fold change over ApoE−/− control; aorta, 28 days Ang II infusion
Experimental: as §2, §1, §3, §4

Fibronectin -1 = test: Aortic mural gene expression, RT-PCR (TLDA); format: in vivo, ApoE−/− mice; settings: fold change over ApoE−/− control; aorta, 28 days Ang II infusion
Experimental: as §2, §1, §3, §4

HMOX 1 = test: Aortic mural gene expression, RT-PCR (TLDA); format: in vivo, ApoE−/− mice; settings: fold change over ApoE−/− control; aorta, 28 days Ang II infusion
Experimental: as §2, §1, §3, §4

MMP-8 = test: Aortic mural gene expression, RT-PCR (TLDA); format: in vivo, ApoE−/− mice; settings: fold change over ApoE−/− control; aorta, 28 days Ang II infusion
Experimental: as §2, §1, §3, §4

Rac2 = test: Aortic mural gene expression, RT-PCR (TLDA); format: in vivo, ApoE−/− mice; settings: fold change over ApoE−/− control; aorta, 28 days Ang II infusion
Experimental: as §2, §1, §3, §4

MAPK8 = test: Aortic mural gene expression, RT-PCR (TLDA); format: in vivo, ApoE−/− mice; settings: fold change over ApoE−/− control; aorta, 28 days Ang II infusion
Experimental: as §2, §1, §3, §4

Cathepsin B = test: Aortic mural gene expression, RT-PCR (TLDA); format: in vivo, ApoE−/− mice; settings: fold change over ApoE−/− control; aorta, 28 days Ang II infusion
Experimental: as §2, §1, §3, §4

CCR2 = test: Aortic mural gene expression, RT-PCR (TLDA); format: in vivo, ApoE−/− mice; settings: fold change over ApoE−/− control; aorta, 28 days Ang II infusion
Experimental: as §2, §1, §3, §4

Vav1 = test: Aortic mural gene expression, RT-PCR (TLDA); format: in vivo, ApoE−/− mice; settings: fold change over ApoE−/− control; aorta, 28 days Ang II infusion
Experimental: as §2, §1, §3, §4

ITGB2 = test: Aortic mural gene expression, RT-PCR (TLDA); format: in vivo, ApoE−/− mice; settings: fold change over ApoE−/− control; aorta, 28 days Ang II infusion
Experimental: as §2, §1, §3, §4

[4] = system: genes involved in the pathophysiology of AAA; test: Drug inhibition effect on differentially expressed genes, overall; format: in vivo, ApoE−/− mice
Experimental: as §2, §1, §3, §4

SMILES: O=C(O)c1cccnc1 [Niacin, nicotinic acid]
Water solubility [1]: water-soluble

SMILES: COCCCOc1cc(C[C@@H](C[C@H](N)[C@@H](O)C[C@H](C(=O)NCC(C)(C)C(N)=O)C(C)C)C(C)C)ccc1OC [Aliskiren]
Water solubility [1]: good water solubility
Half-life in the plasma [2]: approximately 24 hours

SMILES: CCOC(=O)[C@H](CCc1ccccc1)N[C@@H](C)C(=O)N1CC2(C[C@H]1C(=O)O)SCCS2 [spirapril]
Route of clearance/elimination [2]: balanced elimination by the liver and kidneys

Plasma drug content [3]: lower plasma concentration
SMILES: CCCCC1=NC2(CCCC2)C(=O)N1Cc1ccc(-c2ccccc2-c2nnn[nH]2)cc1 [Irbesartan]
Inhibition of aneurysm development/growth (aortic diameter) (AAA): effective in inhibiting/preventing aneurysm development
Inhibition of aneurysm development (aneurysm incidence) (aneurysm): effective in inhibiting aneurysm development; also recorded: inhibited aneurysm development well
Runx3 expression (Runx3): − (0 to 1 = −)
MMP-12 expression (MMP-12): +++ (3.1 to 10 = +++)
IL-7 expression (IL-7): − (0 to 1 = −)
Tgfβ1 expression (Tgfβ1): − (0 to 1 = −)
TNF-α expression (TNF-α): − (0 to 1 = −)
Cybb expression (Cybb): − (0 to 1 = −)
CXCR4 expression (CXCR4): − (0 to 1 = −)
Osteopontin expression (Osteopontin): ++ (1.51 to 3 = ++)
Cathepsin S expression (Cathepsin S): − (0 to 1 = −)
ITGAL expression (ITGAL): − (0 to 1 = −)
CCL2 expression (CCL2): − (0 to 1 = −)
LOX expression (LOX): − (0 to 1 = −)
TIMP2 expression (TIMP2): − (0 to 1 = −)
CCR5 expression (CCR5): − (0 to 1 = −)
Fibronectin -1 expression (Fibronectin -1): − (0 to 1 = −)
HMOX 1 expression (HMOX 1): − (0 to 1 = −)
MMP-8 expression (MMP-8): ++ (1.51 to 3 = ++)
Rac2 expression (Rac2): − (0 to 1 = −)
MAPK8 expression (MAPK8): − (0 to 1 = −)
Cathepsin B expression (Cathepsin B): − (0 to 1 = −)
CCR2 expression (CCR2): − (0 to 1 = −)
Vav1 expression (Vav1): − (0 to 1 = −)
ITGB2 expression (ITGB2): − (0 to 1 = −)
Down-regulation of genes involved in the pathophysiology of AAA ([4]; ApoE−/− + Ang II AAA model, summary of Table 2): down-regulating the expression of genes
Total Score ([4]; sum of heat map grades over 25 genes, ApoE−/− + Ang II group scored 55): 7
